# According to PubChem BioAssay AID1996:
# Conditions: buffer; pH 7.4; 200.0 µM
row,SMILES,solubility kinetic
1,CCc1ccnc(NC(=O)NS(=O)(=O)c2ccc(C)cc2)c1,47.6 µg/mL
2,CCOC(=O)c1c(C)[nH]c(C(=O)OCc2ccccc2F)c1C,< 0.7 µg/mL
3,CSc1ncccc1C(=O)Nc1nccs1,> 37.7 µg/mL
4,COC(=O)CCN(C(=O)c1ccc(Cl)c([N+](=O)[O-])c1)c1ccccn1,> 54.6 µg/mL
5,O=C(COC(=O)c1ccc([N+](=O)[O-])o1)NCCc1ccccc1,> 47.7 µg/mL
6,Oc1cccc(Nc2nc(N3CCOCC3)nc(N3CCOCC3)n2)c1,46.1 µg/mL
7,Cc1cc2c(SCC(=O)NC3CCCC3)ncnc2s1,30.2 µg/mL
8,CCCCNC(=S)Nc1ccc(Oc2ccccc2)cc1,6.5 µg/mL
9,CCCNC(=O)c1noc2c1CCc1cc(OC)ccc1-2,5.6 µg/mL
10,Cc1cccc(NC(=O)c2nc[nH]c2C(=O)Nc2cccc(C)c2)c1,0.2 µg/mL
11,CN(C)C(=O)c1cc(C(=O)Cc2ccccc2)c[nH]1,37.7 µg/mL
12,Fc1ccc(SCCc2cccc[nH+]2)cc1.O=P([O-])(O)O,9.7 µg/mL
13,Cc1ccc(S(=O)(=O)NC(=S)c2ccccc2)cc1,> 43.7 µg/mL
14,COc1ccc2c(ccn2S(=O)(=O)c2ccccc2)c1,1.6 µg/mL
15,O=C(O)c1[nH]c2ccc([N+](=O)[O-])cc2c1-c1ccccc1,> 42.3 µg/mL
16,CCC(Oc1ccccc1OC)C(=O)N1CC(=O)Nc2ccccc21 (stereo not given),43 µg/mL
17,O=P(c1ccccc1)(c1ccccc1)C(O)c1ccccn1 (stereo not given),> 46.4 µg/mL
18,Cc1ccc(S(=O)(=O)N2CC(C)N(S(C)(=O)=O)C2)cc1 (stereo not given),> 47.8 µg/mL
19,C[C@H](NC(=O)c1ccco1)C(=O)Nc1ccc(C#N)cc1,> 42.5 µg/mL
20,COc1ccccc1NC(=O)N1CCN(C)CC1,30.8 µg/mL
21,N#Cc1c(N)n(-c2ccccc2N)c2nc3ccccc3nc12,5.4 µg/mL
22,CN(CCN(C)C(C)(C)C)C(=O)C(c1ccccc1)c1ccccc1,48 µg/mL
23,COc1cccc(C(=O)NCc2ccc3c(c2)OCO3)c1OC,> 47.3 µg/mL
24,CC(=O)Nc1cccc(OCCCNC(=O)c2cccc3ccccc23)c1,46.8 µg/mL

row,SMILES,solubility kinetic
1,Clc1cccc(Cl)c1-c1noc(-c2ccno2)n1,28.6 µg/mL
2,COCCn1c(N)c(N(Cc2ccccc2)C(=O)c2cc(=O)[nH]c3ccccc23)c(=O)[nH]c1=O,> 69.2 µg/mL
3,COc1ccc(NC(=O)C2C3CCC(O3)C2C(=O)O)c(OC)c1 (stereo not given),> 48.2 µg/mL
4,O=C(Nc1ccc(F)c(Cl)c1)c1cc(-c2ccco2)on1,< 0.3 µg/mL
5,O=C(Nc1ccc(Br)cc1)C1Cc2ccccc2O/C1=N\O (stereo not given),< 0.4 µg/mL
6,CC(=O)Oc1ccc(-c2ccc(C(=O)OCC(=O)c3c(N)n(C)c(=O)n(C)c3=O)cc2)cc1,3.2 µg/mL
7,CN(Cc1c(F)cccc1Cl)C(=O)c1cc2ccccc2o1,12.3 µg/mL
8,NC(=O)CSc1ccc(F)cc1,> 27.8 µg/mL
9,Cl.c1ccc(CCNCc2cccnc2)cc1,35.3 µg/mL
10,COc1ccc(C(=O)N=c2sc3ccccc3n2C)cc1,< 0.3 µg/mL
11,COc1ccccc1NC(=S)NCc1ccccc1,14.8 µg/mL
12,CC(=O)N1CC(=O)Nc2ccc(C)cc2C1c1ccccc1 (stereo not given),> 44.2 µg/mL
13,COc1ccc(Br)cc1CN(C)CC(=O)Nc1cccc(S(=O)(=O)N2CCCC2)c1.O=C(O)C(=O)O,12.9 µg/mL
14,COc1cc(OC)c(C(=O)NC2CCCc3ccccc32)cc1OC (stereo not given),44.3 µg/mL
15,Cc1ccc(F)cc1NC(=O)N1CCN(C2c3ccccc3-c3ccccc32)CC1,4.9 µg/mL
16,Cc1nc2ccccc2nc1OCC(=O)Nc1ccc(F)cc1,33 µg/mL
17,CCCC(=O)Nc1cc2c3c(c1)C(C)C(=O)N3CCC2 (stereo not given),38 µg/mL
18,COCCCNC(=O)C(=O)NC1CCCCC1C (stereo not given),> 38.5 µg/mL
19,CC1CCN(C(=O)CS(=O)(=O)Cc2ccccc2)CC1,42.3 µg/mL
20,Cn1c(N)nc2nc(CCc3ccccc3)c(=O)[nH]c2c1=O,9.9 µg/mL
21,O=C(Nc1ccccc1C(F)(F)F)c1ccsc1,> 40.7 µg/mL
22,COc1ccc(OC)c(S(=O)(=O)NCc2ccccn2)c1,> 46.3 µg/mL
23,O=C1CSC(c2cccnc2)N1Cc1ccc(Cl)cc1Cl (stereo not given),> 50.9 µg/mL
24,Cc1ccc(N2Cc3ccccc3C2=O)cc1,7.8 µg/mL

row,SMILES,solubility kinetic
1,Cc1ccc(C(=O)OCc2cc(=O)n3ccsc3n2)s1,6.8 µg/mL
2,COC(=O)CSc1nc(NCc2ccccc2)nc(N(C)C)n1,0.3 µg/mL
3,COc1ccc(OCCC(=O)OCC(=O)NCCc2ccccc2)cc1,52.8 µg/mL
4,Cc1c(Cl)cccc1NC(=O)CCCN1C(=O)c2cccnc2C1=O,39.5 µg/mL
5,CC1CC(NC2=NCCS2)CC(C)(C)C1 (stereo not given),24.6 µg/mL
6,Clc1cccc(C2NCc3ccccc3-n3cccc32)c1 (stereo not given),3.5 µg/mL
7,NC(N)=Nc1nc(-c2ccccc2)c2cc(F)ccc2n1,> 42.2 µg/mL
8,O=C(NC1C2CC3CC(C2)CC1C3)c1ccc(Br)o1 (stereo not given),27.8 µg/mL
9,O=C(CN1C(=O)c2ccccc2S1(=O)=O)NCc1cccs1,22.2 µg/mL
10,Cc1ccc2c(COC(=O)c3c(C)noc3C)cc(=O)oc2c1,3.1 µg/mL
11,O=C(OCC(=O)N1CCN(C(=O)c2ccco2)CC1)c1ccc(Cl)nc1,> 56.7 µg/mL
12,Cc1cccc(OCc2nc(C#N)c(N3CCCC3)o2)c1,9.6 µg/mL
13,Nc1cccc(S(=O)(=O)Nc2ccccc2)c1,> 37.2 µg/mL
14,C=CCNC(=O)c1cc2c(=O)n3ccccc3nc2s1,10.4 µg/mL
15,COC(=O)[C@H](CC(C)C)NC(=O)N1CCC(C)CC1,> 40.6 µg/mL
16,O=C1CCCN1CC(O)CS(=O)(=O)Cc1ccccc1Cl (stereo not given),> 49.8 µg/mL
17,Cc1ccc2[nH]cc(CCNC(=O)c3cccs3)c2c1,> 42.7 µg/mL
18,CCn1c(SCC(=O)O)nc2ccccc21,> 35.4 µg/mL
19,CC1(C)C2CC=C(/C=N/NC(=O)C(N)=O)C1C2 (stereo not given),> 35.3 µg/mL
20,COc1ccc(OCC(O)CNC2CCCC2)cc1.Cl (stereo not given),42.6 µg/mL
21,Cl.NCCOc1ccccc1OCCN,> 40.4 µg/mL
22,O=c1[nH]c(=S)n(-c2ccccc2F)c(O)c1C=NCCN1CCNCC1,55.3 µg/mL
23,COc1cc(C(=O)Nc2ccccc2C(=O)Nc2ccccn2)cc(OC)c1OC,4.6 µg/mL
24,Fc1ccc(NC(=S)Nc2cccnc2)c(F)c1F,> 42.5 µg/mL

row,SMILES,solubility kinetic
1,Cc1ccnc(NC(=O)c2ccc3c(c2)OCO3)c1,> 38.4 µg/mL
2,COc1cccc(-c2cc(-c3cccnc3)c(C#N)c(N)n2)c1,0.7 µg/mL
3,CCc1ccc(CN(C)Cc2nc(COc3ccccc3)no2)nc1,36.7 µg/mL
4,Clc1ccc(CNc2ccc(N3CCN(Cc4ccccc4)CC3)cc2)cc1,1 µg/mL
5,COc1ccccc1CN1C(=O)CNC1=S,> 35.4 µg/mL
6,OCC1CCCN(c2ncnc3scc(-c4ccccc4)c23)C1 (stereo not given),47.4 µg/mL
7,CN1CCN(C(=O)c2ccc(Cl)cc2)CC1,> 35.8 µg/mL
8,COc1ccccc1CCC(=O)OCC(=O)Nc1ccc2[nH]c(=O)[nH]c2c1,30.5 µg/mL
9,CCCC(=O)Nc1ccc2c(c1)nc(CCNC(=O)c1ccco1)n2C,> 53.2 µg/mL
10,Cc1cccc(OCC(=O)NC2CC(C)(C)NC(C)(C)C2)c1,> 45.7 µg/mL
11,Cc1cccc(S(=O)(=O)Nc2ccc3c(c2)OCCO3)c1,28.7 µg/mL
12,COc1ccc(CNC(=O)CN2C(=O)NC3(CCCCCCC3)C2=O)cc1,23.4 µg/mL
13,CSc1ccccc1C(=O)NCCCn1ccnc1,> 41.3 µg/mL
14,COc1ccc(C(=O)CSc2nc3ncccc3[nH]2)cc1OC,13.4 µg/mL
15,COc1ccc(CCCc2nc3ccccc3[nH]2)cc1,37.4 µg/mL
16,O=C(COC(=O)c1cnccn1)c1ccc(Cl)cc1,38.4 µg/mL
17,N#Cc1cccc(Cn2cc(C(F)(F)F)ccc2=O)c1,41.7 µg/mL
18,COc1ccc(C(=O)NC2=NCCS2)cc1,> 35.4 µg/mL
19,CCOc1ccccc1NC(=O)N1CCCN(c2ncccc2C#N)CC1,45.7 µg/mL
20,CC(C)c1nc(SCC(=O)NC2CCCCC2)c2ccccc2n1,1.8 µg/mL
21,COc1ccc(-n2c(O)c(C(C)=NCC3CCCO3)c(=O)[nH]c2=O)cc1 (stereo not given),51.5 µg/mL
22,CCC(C)N1CNc2c(c(=O)[nH]c(=S)n2-c2cccc(C)c2)C1 (stereo not given),> 49.6 µg/mL
23,CCOC(=O)CNC(=S)SC,21.8 µg/mL
24,CCN(C(=O)CN1CCCCCC1)c1c(N)n(Cc2ccccc2)c(=O)[nH]c1=O,> 59.9 µg/mL

row,SMILES,solubility kinetic
1,NC(=O)COC(=O)/C=C/c1ccccc1[N+](=O)[O-],33.1 µg/mL
2,NC(=O)c1ccccc1NS(=O)(=O)c1ccc(F)cc1,> 44.1 µg/mL
3,Cc1nnc(SC(C)C(=O)NC2CCCCC2C)s1 (stereo not given),> 44.9 µg/mL
4,CCN(CCNC(=O)c1ccc(C#N)cc1)c1cccc(C)c1,> 46.1 µg/mL
5,COc1ccccc1N(CC(=O)NC1CCCCC1C)S(=O)(=O)c1cccs1 (stereo not given),2 µg/mL
6,O=C(Nc1ncc2c(n1)-c1ccccc1OC2)c1cccc([N+](=O)[O-])c1,1.4 µg/mL
7,O=C(c1ccc([N+](=O)[O-])cc1[N+](=O)[O-])N1CCc2ccccc21,4.2 µg/mL
8,CCOc1ccc(N2C(=O)Cc3ccccc3C2=O)cc1,26.9 µg/mL
9,COc1ccc(OCC(=O)OCC(=O)Nc2cc(S(=O)(=O)N3CCOCC3)ccc2Cl)cc1,62.5 µg/mL
10,C=C(C)CN(CC)C(=O)CN1C(=O)NC2(CCCc3ccccc32)C1=O (stereo not given),> 53.3 µg/mL
11,Cc1ccnc(S(=O)(=O)Cc2ccc([N+](=O)[O-])cc2)n1,> 44 µg/mL
12,CCOc1ncccc1C(=O)NCCc1c[nH]c2ccccc12,8.7 µg/mL
13,Cc1ccc2c(c1)N(CC(=O)N1CCC(O)CC1)C(=O)CO2,> 45.7 µg/mL
14,CC(OC(=O)/C=C/c1cccs1)C(=O)NC1CCCCC1C (stereo not given),4.9 µg/mL
15,C=CCn1c(O)c(/C=N/N2CCCCC2)c(=O)[nH]c1=O,> 41.7 µg/mL
16,Oc1ccc2ccccc2c1C=NC1CCCCC1,> 38 µg/mL
17,CC(=O)N/C(N)=N/c1nc2cc(C)ccc2o1,3.3 µg/mL
18,Cc1cc(S(=O)(=O)N2CCOCC2)c(C)s1,> 39.2 µg/mL
19,Cn1c(N)c(C(=O)CSc2nc(N)cc(N)n2)c(=O)n(C)c1=O,3 µg/mL
20,CC1CCCC(NC(=O)COC(=O)COc2ccccc2Cl)C1C (stereo not given),31.1 µg/mL
21,CCOc1ccccc1NC(=O)c1csc(C)c1C,16.5 µg/mL
22,COc1ccc(NC(=O)NCc2cccnc2)cc1,> 38.6 µg/mL
23,CC1CCCC(C)N1C(=O)COC(=O)CNC(=O)c1ccccc1F (stereo not given),> 52.6 µg/mL
24,O=C1CN(C(=O)c2ccccc2C(=O)O)c2ccccc2N1,> 44.4 µg/mL
